Results as given in the SangsterLogP compilation.

Assay: method code SF-HPLC, from DOI: 10.1002/jps.2600840914, PMID: 8537890

| Structure (SMILES) | logP |
| --- | --- |
| Cc1ccc(-c2cssc2=S)cc1 | 3.73 |
| Cc1ssc(=S)c1-c1ccccc1 | 3.17 |
| Cc1ssc(=S)c1C | 2.45 |
| COc1ccc(-c2cc(=S)ss2)cc1 | 3.82 |
| CCCc1cssc1=O | 2.38 |
| Cc1cc(=S)ss1 | 1.87 |
| Cc1ssc(=O)c1C | 1.73 |
| CCc1cc(=O)ss1 | 1.69 |
| Cc1cssc1=S | 2.18 |
| S=c1cc(-c2ccccc2)ss1 | 3.67 |
| S=c1ccss1 | 1.58 |
| Cc1c(-c2ccccc2)ssc1=S | 3.95 |
| CCc1cssc1=S | 2.67 |
| Cc1ccc(-c2cc(=S)ss2)cc1 | 4.26 |
| Cc1cssc1=O | 1.33 |
| S=c1ssc2c1CCCCC2 | 3.27 |
| S=c1cc(Cc2ccccc2)ss1 | 3.43 |
| CCCc1cc(=O)ss1 | 2.24 |
| S=c1ssc2c1CCC2 | 2.53 |

| Structure (SMILES) | logP |
| --- | --- |
| Cc1ssc(=S)c1Cc1ccccc1 | 3.78 |
| CCc1ssc(=S)c1C | 2.95 |
| CCCc1ssc(=S)c1CC | 3.76 |
| CCCc1ssc(=S)c1C | 3.42 |
| CCCc1cc(=S)ss1 | 2.83 |
| CCCCc1cssc1=S | 3.7 |
| Cc1cc(=O)ss1 | 1.26 |
| CCc1c(C)ssc1=S | 2.94 |
| CCCc1c(C)ssc1=S | 3.39 |
| S=c1ssc2ccccc12 | 3.57 |
| COc1ccc(-c2ssc(=S)c2C)cc1 | 4.1 |
| CCc1cc(=S)ss1 | 2.31 |
| CCCc1cssc1=S | 3.18 |
| CCCCCc1cssc1=S | 4.06 |
| S=c1sscc1-c1ccccc1 | 3.2 |
| CCc1ssc(=S)c1CC | 3.51 |
| S=c1ssc2c1CCCCCC2 | 3.75 |
| CCc1ssc(=S)c1-c1ccccc1 | 3.52 |
